ChEMBL document CHEMBL1129148, “Synthesis and biological evaluation of 4-alkoxy substituted trinems. Part I” (1996)
≈ marks a conversion by molar mass, not a printed value.

Experiments:
Type in all cases: functional
Bacteroides fragilis = assay: Compound was tested for in vitro antibacterial activity against Bacteroides fragilis 2017
Clostridium perfringens = assay: Compound was tested for in vitro antibacterial activity against Clostridium perfringens 615E
Enterococcus faecalis = assay: Compound was tested for in vitro antibacterial activity against […] faecalis 850
Escherichia coli [1] = assay: Compound was tested for in vitro antibacterial activity against Escherichia coli 1850E
Escherichia coli [2] = assay: Compound was tested for in vitro antibacterial activity against Escherichia coli 1919 a beta-lactamase producing strain(TEM 1) with permeable outer membrane
Pseudomonas aeruginosa = assay: Compound was tested for in vitro antibacterial activity against Pseudomonas aeruginosa 1911
Staphylococcus aureus = assay: Compound was tested for in vitro antibacterial activity against Staphylococcus aureus 853E penicillinase (PCI) producing strain
Streptococcus pneumoniae = assay: Compound was tested for in vitro antibacterial activity against Streptococcus pneumoniae 3512

C[C@@H](O)[C@H]1C(=O)N2C(C(=O)[O-])=C3[C@@H](OCCO)CCC[C@@H]3[C@H]12.[K+]
MIC (Bacteroides fragilis): 0.1 µg/mL
MIC (Clostridium perfringens): 0.06 µg/mL
MIC (Enterococcus faecalis): 8 µg/mL
MIC (Escherichia coli [1]): 0.5 µg/mL
MIC (Escherichia coli [2]): 0.5 µg/mL
MIC (Pseudomonas aeruginosa): > 32 µg/mL
MIC (Staphylococcus aureus): 0.5 µg/mL
MIC (Streptococcus pneumoniae): 0.1 µg/mL

C[C@@H](O)[C@H]1C(=O)N2C(C(=O)[O-])=C3[C@@H](OCCC#N)CCC[C@@H]3[C@H]12.[K+]
MIC (Bacteroides fragilis): 0.2 µg/mL
MIC (Clostridium perfringens): 0.03 µg/mL
MIC (Enterococcus faecalis): 2 µg/mL
MIC (Escherichia coli [1]): 4 µg/mL
MIC (Escherichia coli [2]): 1 µg/mL
MIC (Pseudomonas aeruginosa): > 32 µg/mL
MIC (Staphylococcus aureus): 0.5 µg/mL
MIC (Streptococcus pneumoniae): 0.06 µg/mL

COCCO[C@H]1CCC[C@@H]2C1=C(C(=O)[O-])N1C(=O)[C@H]([C@@H](C)O)[C@@H]21.[K+]
MIC (Bacteroides fragilis): 32 µg/mL
MIC (Clostridium perfringens): > 32 µg/mL
MIC (Enterococcus faecalis): > 32 µg/mL
MIC (Escherichia coli [1]): > 32 µg/mL
MIC (Escherichia coli [2]): 32 µg/mL
MIC (Pseudomonas aeruginosa): > 32 µg/mL
MIC (Staphylococcus aureus): 8 µg/mL
MIC (Streptococcus pneumoniae): 8 µg/mL

C[C@@H](O)[C@H]1C(=O)N2C(C(=O)O)=C(SCCNC=N)C[C@H]12 [IMIPENEM ANHYDROUS]
MIC (Bacteroides fragilis): 0.06 µg/mL (≈ 0.2 µM)
MIC (Clostridium perfringens): 0.03 µg/mL (≈ 0.1 µM)
MIC (Enterococcus faecalis): 2 µg/mL (≈ 6.68 µM)
MIC (Escherichia coli [1]): 0.5 µg/mL (≈ 1.67 µM)
MIC (Escherichia coli [2]): 0.5 µg/mL (≈ 1.67 µM)
MIC (Pseudomonas aeruginosa): 4 µg/mL (≈ 13.4 µM)
MIC (Staphylococcus aureus): 0.1 µg/mL (≈ 0.334 µM)
MIC (Streptococcus pneumoniae): < 0.01 µg/mL

COCCO[C@H]1CCC[C@H]2C1=C(C(=O)[O-])N1C(=O)[C@H]([C@@H](C)O)[C@@H]21.[K+]
MIC (Bacteroides fragilis): 0.1 µg/mL
MIC (Clostridium perfringens): 0.03 µg/mL
MIC (Enterococcus faecalis): 2 µg/mL
MIC (Escherichia coli [1]): 2 µg/mL
MIC (Escherichia coli [2]): 0.5 µg/mL
MIC (Pseudomonas aeruginosa): > 32 µg/mL
MIC (Staphylococcus aureus): 0.5 µg/mL
MIC (Streptococcus pneumoniae): 0.2 µg/mL

C[C@@H](O)[C@H]1C(=O)N2C(C(=O)[O-])=C3[C@@H](OCCF)CCC[C@@H]3[C@H]12.[K+]
MIC (Bacteroides fragilis): 0.2 µg/mL
MIC (Clostridium perfringens): ≤ 0.01 µg/mL
MIC (Enterococcus faecalis): 4 µg/mL
MIC (Escherichia coli [1]): 4 µg/mL
MIC (Escherichia coli [2]): 0.5 µg/mL
MIC (Pseudomonas aeruginosa): > 32 µg/mL
MIC (Staphylococcus aureus): 0.2 µg/mL
MIC (Streptococcus pneumoniae): 0.03 µg/mL

CO[C@H]1CCC[C@H]2C1=C(C(=O)[O-])N1C(=O)[C@H]([C@@H](C)O)[C@@H]21.[Na+] [SANFETRINEM SODIUM]
MIC (Bacteroides fragilis): 0.06 µg/mL
MIC (Clostridium perfringens): 0.03 µg/mL
MIC (Enterococcus faecalis): 1 µg/mL
MIC (Escherichia coli [1]): 0.5 µg/mL
MIC (Escherichia coli [2]): 0.5 µg/mL
MIC (Pseudomonas aeruginosa): > 32 µg/mL
MIC (Staphylococcus aureus): 0.2 µg/mL
MIC (Streptococcus pneumoniae): ≤ 0.01 µg/mL
